Patent US11166460B2, “α-amino acrylate microbicide, and preparation method therefor and uses thereof” (priority 2017, dated 2021)
Values after ≈ are worked out from the molar mass of the structure shown. Read-outs that look alike come from different tables or passages of the source.

What was measured:
[1] = system: tobacco mosaic virus (TMV); assay: Anti-TMV inactivation activity (inactivation mode), compound mixed with TMV before inoculation of tobacco leaves; format: in vivo; conditions: Tobacco mosaic virus, read-out: Anti-TMV activity, Inactivation effect (inhibition)
wheat Gibberella zeae = assay: microbe, parasite or virus in culture; format: cell-based; conditions: Fusarium graminearum
[2] = system: Phytophthora infestans (Mont) de Bary; assay: microbe, parasite or virus in culture; format: cell-based; conditions: Phytophthora infestans
Pellicularia sasakii = assay: Fungicidal activity, fungi growth rate method, PS; format: cell-based; conditions: 50 μg/mL; read-out: Fungicidal activity, inhibition, PS
Sclerotinia sclerotiorum = assay: microbe, parasite or virus in culture; format: cell-based; conditions: Sclerotinia sclerotiorum; for inhibition at 50 µg/mL: 50 μg/mL; for EC90: read-out: EC90 against S. sclerotiorum in vitro
Rhizoctonia cerealis = assay: Fungicidal activity, fungi growth rate method, RC; format: cell-based; conditions: Ceratobasidium cereale; 50 μg/mL; read-out: Fungicidal activity, inhibition, RC
Cercospora arachidicola = assay: Fungicidal activity, fungi growth rate method, CA; format: cell-based; conditions: Mycosphaerella arachidis, 50 μg/mL
Alternaria solani = assay: Fungicidal activity, fungi growth rate method, AS; format: cell-based; conditions: Alternaria solani, 50 μg/mL
[3] = system: tobacco mosaic virus (TMV); assay: Anti-TMV protective activity (protection mode), live friction inoculation on tobacco seedlings; format: in vivo; conditions: Tobacco mosaic virus, read-out: Anti-TMV activity, Protection effect (inhibition)
Botrytis cinerea = assay: Fungicidal activity, fungi growth rate method, BC; format: cell-based; conditions: Botrytis cinerea; 50 μg/mL; read-out: Fungicidal activity, inhibition, BC
[4] = system: tobacco mosaic virus (TMV); assay: Anti-TMV curative activity (treatment mode), live friction inoculation on tobacco seedlings; format: in vivo; conditions: Tobacco mosaic virus, read-out: Anti-TMV activity, Curative effect (inhibition), 100 μg/mL, tobacco seedlings, checked on seventh day
Physalospora piricola = assay: Fungicidal activity, fungi growth rate method, PP; format: cell-based; conditions: 50 μg/mL; read-out: Fungicidal activity, inhibition, PP
[5] = system: tobacco mosaic virus (TMV); assay: Anti-TMV inducing activity (induction mode), tobacco seedlings; format: in vivo; conditions: Tobacco mosaic virus, read-out: Anti-TMV activity, Induction effect (inhibition), 100 μg/mL, tobacco seedlings
[6] = read-out: Fungicidal activity, inhibition, GZ
[7] = read-out: Fungicidal activity, inhibition, PI
[8] = read-out: Fungicidal activity (inhibition) against SS: Sclerotinia sclerotiorum
[9] = read-out: Fungicidal activity, inhibition, SS
[10] = read-out: Fungicidal activity, inhibition, CA
[11] = read-out: Fungicidal activity, inhibition, AS

SMILES | inhibition at 100 µg/mL [1] | inhibition at 50 µg/mL (wheat Gibberella zeae; [6]) | inhibition at 50 µg/mL [2, 7] | inhibition at 50 µg/mL (Pellicularia sasakii) | melting point | inhibition at 50 µg/mL (Sclerotinia sclerotiorum; [8]) | inhibition at 50 µg/mL (Sclerotinia sclerotiorum; [9]) | inhibition at 50 µg/mL (Rhizoctonia cerealis) | inhibition at 50 µg/mL (Cercospora arachidicola; [10]) | inhibition at 50 µg/mL (Alternaria solani; [11]) | inhibition at 100 µg/mL [3] | inhibition at 50 µg/mL (Botrytis cinerea) | inhibition at 100 µg/mL [4] | inhibition at 50 µg/mL (Physalospora piricola) | inhibition at 100 µg/mL [5] | inhibition at 50 µg/mL ([2]; read-out: Fungicidal activity (inhibition) against PI: Phytophthora infestans (Mont) de Bary) | inhibition at 50 µg/mL (Cercospora arachidicola; read-out: Fungicidal activity (inhibition) against CA: Cercospora arachidicola) | EC90 (Sclerotinia sclerotiorum) | inhibition at 50 µg/mL (Alternaria solani; read-out: Fungicidal activity (inhibition) against AS: Alternaria solani) | inhibition at 50 µg/mL (wheat Gibberella zeae; read-out: Fungicidal activity (inhibition) against GZ: wheat Gibberella zeae)
O=C(N/C(=C\c1ccccc1)C(=O)N1CCC(O)(c2ccc(Br)cc2)CC1)c1cccs1 [Compound 14, (Z)-N-[1-[[4-(4-bromophenyl)-4-hydroxy-1-piperidinyl]carbonyl]-2-phenylethenyl]-2-thiophenecarboxamide] | 30% | 7% | 5% | 3% | 134 to 136 °C | 80 to 95% | 83% | 8% | 7% | 17% | 34% | 24% | 39% | 0% | 52% |  |  |  |  | 
Cc1ccc(/C=C(\NC(=O)c2ccccc2)C(=O)N2CCC(O)(c3ccc(Br)cc3)CC2)cc1 [Compound 15, (Z)-N-[1-[[4-(4-bromophenyl)-4-hydroxy-1-piperidinyl]carbonyl]-2-(4-metylphenyl)ethenyl]benzamide] | 0% | 10% | 21% | 12% | 234 to 236 °C |  | 56% | 16% | 13% | 17% | 0% | 10% | 20% | 7% | 41% |  |  |  |  | 
COc1ccc(/C=C(\NC(=O)c2ccccc2)C(=O)N2CCC(O)(c3ccc(Br)cc3)CC2)cc1 [Compound 16, (Z)-N-[1-[[4-(4-bromophenyl)-4-hydroxy-1-piperidinyl]carbonyl]-2-(4-methoxyphenyl)ethenyl]benzamide] | 1% | 2% | 33% | 15% | 208 to 210 °C |  | 67% | 13% | 55% | 23% | 57% | 29% | 0% | 5% | 8% | 33% | 55% |  |  | 
O=C(N/C(=C\c1ccc(F)cc1)C(=O)N1CCC(O)(c2ccc(Br)cc2)CC1)c1ccccc1 [Compound 17, (Z)-N-[1-[[4-(4-bromophenyl)-4-hydroxy-1-piperidinyl]carbonyl]-2-(4-fluorophenyl)ethenyl]-benzamide] | 1% | 16% | 27% | 15% | 266 to 268 °C |  | 67% | 10% | 23% | 28% | 33% | 10% | 0% | 3% | 3% |  |  |  |  | 
O=C(N/C(=C\c1ccc(Cl)cc1)C(=O)N1CCC(O)(c2ccc(Br)cc2)CC1)c1ccccc1 [Compound 18, (Z)-N-[1-[[4-(4-bromophenyl)-4-hydroxy-1-piperidinyl]carbonyl]-2-(4-chlorophenyl)ethenyl]benzamide] | 27% | 49% | 31% | 29% | 210 to 212 °C |  | 93% | 29% | 30% | 43% | 39% | 34% | 0% | 27% | 34% |  |  | 381 mg/L (≈ 706 µM) | 43% | 
O=C(N/C(=C\c1ccc(Br)cc1)C(=O)N1CCC(O)(c2ccc(Br)cc2)CC1)c1ccccc1 [Compound 19, (Z)-N-[1-[[4-(4-bromophenyl)-4-hydroxy-1-piperidinyl]carbonyl]-2-(4-bromophenyl)ethenyl]benzamide] | 0% | 5% | 27% | 12% | 147 to 148 °C |  | 44% | 19% | 3% | 21% | 46% | 4% | 0% | 16% | 0% |  |  |  |  | 
O=C(N/C(=C\c1ccc(C(F)(F)F)cc1)C(=O)N1CCC(O)(c2ccc(Br)cc2)CC1)c1ccccc1 [Compound 20, (Z)-N-[1-[[4-(4-bromophenyl)-4-hydroxy-1-piperidinyl]carbonyl]-2-(4-trifluoromethylphenyl)ethenyl]benzamide] | 0% | 7% | 21% | 21% | 137 to 139 °C |  | 67% | 19% | 16% | 17% | 52% | 7% | 0% | 10% | 53% |  |  |  |  | 
O=C(N/C(=C\c1cccc(C(F)(F)F)c1)C(=O)N1CCC(O)(c2ccc(Br)cc2)CC1)c1ccccc1 [Compound 21, (Z)-N-[1-[[4-(4-bromophenyl)-4-hydroxy-1-piperidinyl]carbonyl]-2-(3-trifluoromethylphenyl)ethenyl]benzamide] | 58% | 19% | 2% | 17% | 118 to 120 °C | 60 to 80% | 75% | 24% | 25% | 12% | 46% | 8% | 35% | 8% | 9% |  |  |  |  | 
O=C(N/C(=C\c1ccccc1C(F)(F)F)C(=O)N1CCC(O)(c2ccc(Br)cc2)CC1)c1ccccc1 [Compound 22] | 58% | 28% | 5% | 15% | 149 to 151 °C | 100% | 100% | 26% | 25% | 12% | 0% | 8% | 59% | 8% | 22% |  |  | 199 mg/L (≈ 347 µM) |  | 
O=C(N/C(=C\c1ccc([N+](=O)[O-])cc1)C(=O)N1CCC(O)(c2ccc(Br)cc2)CC1)c1ccccc1 [Compound 23, (Z)-N-[1-[[4-(4-bromophenyl)-4-hydroxy-1-piperidinyl]carbonyl]-2-(4-nitrophenyl)ethenyl]benzamide] | 4% | 19% | 17% | 33% | 186 to 188 °C |  | 67% | 26% | 10% | 25% | 59% | 7% | 0% | 10% | 11% |  |  |  |  | 
O=C(N/C(=C\c1c[nH]cn1)C(=O)N1CCC(O)(c2ccc(Br)cc2)CC1)c1ccccc1 [Compound 26, (Z)-N-[1-[[4-(4-bromophenyl)-4-hydroxy-1-piperidinyl]carbonyl]-2-(4-imidazole)ethenyl]benzamide] | 21% | 2% | 19% | 0% | 176 to 178 °C | 60 to 80% | 78% | 16% | 16% | 21% | 1% | 14% | 0% | 7% | 1% |  |  |  |  | 77%
